Assay: Critical micelle concentration of surfactant
Type: physicochemical
Conditions: at 25° C.

critical micelle concentration: 8.1 mM
Structure (SMILES): CCCCCCCCCCCCOS(=O)(=O)[O-].[Na+] [SDS, sodium dodecyl sulfate]
